From ChEMBL document CHEMBL1138145, “Enhanced FTase activity achieved via piperazine interaction with catalytic zinc” (Bioorg Med Chem Lett, 2006) come the findings set out here.

Data set [1] has as its target T1, Protein farnesyltransferase (Homo sapiens, UniProt P49354+P49356). Kind of data set: Inhibition of farnesyltransferase activity at 0.2 uM. It is filed as protein-complex assay.
Data set [2] concerns the target T1, Protein farnesyltransferase. Nature of the data set: Inhibition of farnesyltransferase activity. It is filed as protein-complex assay.
Data set [3] in a line: AUC in rat at 10 mg/kg, po. It is filed as ADME, organism-based. Set-up: dose 10 mg/kg, route oral. The settings on record: plasma.
Data set [4] concerns the target T1, Protein farnesyltransferase. Kind of data set: Inhibition of farnesyltransferase activity in COS7 cells transfected with Ras gene in soft agar proliferation. The class given is functional, cell-based, Chlorocebus aethiops, COS-7.

Molecules are shown by their SMILES. pIC50: −log10 of the molar value.

Broadly, the inhibition is the relative decrease from the control value, in per cent. Read a low inhibition as little suppression. By pIC50 is commonly meant −log10 of the IC50, conventionally taken in molar units. One may read the AUC as concentration integrated over time. Read a high AUC as more exposure.

Take `CS(=O)(=O)N1CCC([C@H]2c3ccc(Cl)cc3C(N3CCNCC3)=Cc3cccnc32)CC1`: the inhibition in data set [1] was 29%.

As to `CS(=O)(=O)N1CCC([C@@H]2c3ccc(Cl)cc3C=C(N3CCNCC3)c3cccnc32)CC1`, in data set [2], the pIC50 is 7.12.

As for `CS(=O)(=O)N1CCC([C@@H]2c3ccc(Cl)cc3C(N3CCNCC3)=Cc3cccnc32)CC1`, the figures for the pIC50 in data set [2] and in data set [4] were 8.15 and 7.14, respectively. For the same compound, the area under the curve (AUC) in data set [3] came to 4 µM·h.

In turn, `CS(=O)(=O)N1CCC([C@H]2c3ccc(Cl)cc3C=C(N3CCNCC3)c3cccnc32)CC1` showed a pIC50 in data set [2] of 6.82.
